# Experiments:
# Type in all cases: cell-based, human
# SK-MEL-28 [1] = test: Cell number quantitation with violet crystal
# Procedure: Cells: The study was carried out using a cell line derived from human melanoma, provided by ABAC (Asociación Banco Argentino de Células—Cell Bank of Argentina), with melanin synthesis capability (SK-MEL-28, ATCC origin). […] Study of in vitro compounds: […] After 24 hours have lapsed, the medium was replaced with 990 μl of fresh medium. 10 μl of sterile vehicle (50% propylene glycol, 30% ethanol and 20% distilled water) containing different concentrations of the compounds to be evaluated were added to this fresh medium. […] On the fourth day, the cells were not treated, and the remaining adherent cells were assayed on the fifth day according to the methods described below. The cells were thus continuously exposed to the compounds under study for the 5 days the culture lasted. All the concentrations of the compounds were studied in triplicate, comparing the mean of the 3 wells treated with the compounds with those treated with the vehicle alone. Cell number quantitation with violet crystal: A stain with a violet crystal aqueous solution was used for the purpose of determining the number of cells adhering to the plastic surviving in vitro treatment by means of indirect methods. […] The dishes were stained for 5 minutes at room temperature on a rotary platform, with gentle stirring. Then the excess colorant was decanted by turning the dish over and the entire dish was submerged 4 times in distilled water in a suitable container. After rinsing, the dishes were turned over and allowed to drip on absorbent paper until the excess water was completely removed. […] The plates were finally placed on a rotary agitator for 30 minutes at room temperature. […] In order to determine the fraction of cells surviving treatment at a specific concentration of the experimental agent, the OD590 of the treated wells (average of three measurements) was divided by the OD590 of the wells used with a control vehicle (average of three measurements).
# SK-MEL-28 [2] = test: Melanin content determination (OD400) in SK-MEL cells; details: for OD400 (melanin) / OD400 expressed as percentage of control (melanin): assayed day 5
# Procedure: (§1) In vitro determinations were performed following the method devised by Dooley et al. (Skin Pharmacol. 1994; 7:188-200) in order to evaluate the capacity of idebenone to inhibit melanogenesis, according to the process described below:
# (§2) Cells: The study was carried out using a cell line derived from human melanoma, provided by ABAC (Asociación Banco Argentino de Células—Cell Bank of Argentina), with melanin synthesis capability (SK-MEL-28, ATCC origin). The cells were grown in plastic culture bottles or in 24-well plastic dishes in a modified Eagle medium (DMEM) supplemented with 10% fetal bovine serum (FBS) and were maintained at 37° C. in a 5% CO2 atmosphere.
# (§3) Study of in vitro compounds: SK-MEL cells detached with trypsin were seeded on plastic 24-well dishes (density of 1×10^5 cells per well) and incubated for 24 hours in modified Eagle medium (DMEM) supplemented with 10% fetal bovine serum (FBS) prior to treating with the compound to be evaluated. After 24 hours have lapsed, the medium was replaced with 990 μl of fresh medium. 10 μl of sterile vehicle (50% propylene glycol, 30% ethanol and 20% distilled water) containing different concentrations of the compounds to be evaluated were added to this fresh medium.
# (§4) Decimal dilutions of each compound in the sterile vehicle were prepared in order to obtain final concentrations of the compound to be studied ranging between 1.000 and 0.01 μg/ml. […]
# […] The cells were thus continuously exposed to the compounds under study for the 5 days the culture lasted. All the concentrations of the compounds were studied in triplicate, comparing the mean of the 3 wells treated with the compounds with those treated with the vehicle alone.
# (§5) Melanin content determination: The SK-MEL cell melanin content was determined after stirring the culture medium and washing the cells with PBS. The cells were then lysated by means of adding 1 ml of 1N NaOH to each well and repeated manual pipetting. The raw cell extract was analyzed using a spectrophotometer at 400 and 475 nm to determine the melanin and dopaquinone content, respectively. The results were expressed as a percentage of the cell cultures treated with the vehicle.
# SK-MEL-28 [3] = test: Dopaquinone content determination (OD475) in SK-MEL cells; details: assayed day 5
# Procedure: as §1, §2, §3, §4
# […] […] All the concentrations of the compounds were studied in triplicate, comparing the mean of the 3 wells treated with the compounds with those treated with the vehicle alone.
# as §5
# [4] = dilution −1, treated daily 3 days
# [5] = dilution −2, treated daily 3 days
# [6] = dilution −3, treated daily 3 days
# [7] = dilution −4, treated daily 3 days
# [8] = dilution −5, treated daily 3 days
smiles,measurement,setting,value
"Oc1ccc(O)cc1 [hydroquinone, 1,4-benzenediol]",Toxicity for cells,"SK-MEL-28 [1]; SK-MEL-28, high concentrations",toxicity for hydroquinone was higher
same,Percentage of viable cells,"SK-MEL-28 [1]; dilution −1, percentage of control vehicle",34%
same,Percentage of viable cells,"SK-MEL-28 [1]; dilution −2, percentage of control vehicle",58%
same,Percentage of viable cells,"SK-MEL-28 [1]; dilution −3, percentage of control vehicle",77%
same,Percentage of viable cells,"SK-MEL-28 [1]; dilution −4, percentage of control vehicle",89%
same,Percentage of viable cells,"SK-MEL-28 [1]; dilution −5, percentage of control vehicle",95%
same,Melanin synthesis inhibition,"SK-MEL-28 [2]; SK-MEL-28, Example 5",stops being effective
same,OD400 (melanin),SK-MEL-28 [2]; [4],0.007
same,OD400 expressed as percentage of control (melanin),SK-MEL-28 [2]; [4],21%
same,OD400 (melanin),SK-MEL-28 [2]; [5],0.012
same,OD400 expressed as percentage of control (melanin),SK-MEL-28 [2]; [5],36%
same,OD400 (melanin),SK-MEL-28 [2]; [6],0.021
same,OD400 expressed as percentage of control (melanin),SK-MEL-28 [2]; [6],64%
same,OD400 (melanin),SK-MEL-28 [2]; [7],0.036
same,OD400 expressed as percentage of control (melanin),SK-MEL-28 [2]; [7],109%
same,OD400 (melanin),SK-MEL-28 [2]; [8],0.034
same,OD400 expressed as percentage of control (melanin),SK-MEL-28 [2]; [8],103%
same,OD475 (dopaquinone),SK-MEL-28 [3]; [4],0.0001
same,OD475 expressed as percentage of control (dopaquinone),SK-MEL-28 [3]; [4],0%
same,OD475 (dopaquinone),SK-MEL-28 [3]; [5],0.0013
same,OD475 expressed as percentage of control (dopaquinone),SK-MEL-28 [3]; [5],8%
same,OD475 (dopaquinone),SK-MEL-28 [3]; [6],0.0083
same,OD475 expressed as percentage of control (dopaquinone),SK-MEL-28 [3]; [6],51%
same,OD475 (dopaquinone),SK-MEL-28 [3]; [7],0.0163
same,OD475 expressed as percentage of control (dopaquinone),SK-MEL-28 [3]; [7],100%
same,OD475 (dopaquinone),SK-MEL-28 [3]; [8],0.0163
same,OD475 expressed as percentage of control (dopaquinone),SK-MEL-28 [3]; [8],100%
